According to PubChem BioAssay AID179 (DTP/NCI, 2004):
pEC50, pIC50: −log10 of the molar value. Where “and” joins values, the source holds several entries; their conditions need not be identical. Equal entries are not always repeated. Calls of active or inactive are those of the source.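 The calls were made as follows: active = compounds giving half or more protection of infected cells from virus-caused growth loss, again on retest; inactive = the rest.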 Where a SMILES comes first, the peptide text is derived from it. Bridges are numbered along the chain shown (N, C = ends). The star is where a group is joined. Cbz = O=C(OCc1ccccc1)*

System: CEM cells HIV-1 protection, formazan growth assay
Test: NCI AIDS Antiviral Assay
Conditions: for pIC50: measured here: growth of uninfected CEM cells
Method in brief: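 Protection of CEM cells against HIV-1 measured as cell growth via soluble formazan read-out, with five concentrations tested on both infected and uninfected cells; failure to protect may reflect toxicity.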

SMILES	pEC50	pIC50	outcome
O=C(Nc1ccccc1)n1cc(-c2ccccn2)c(N2CCOCC2)n1	< 3.71	4.27	
CCOC(=O)CCC(NC(=O)c1ccc(Nc2cnc3ccc(C(F)(F)F)cc3n2)cc1)C(=O)OCC (stereo not drawn)	< 3.70	4.73	
O/N=C(/Cc1ccccc1)CC(O)(C(F)(F)F)C(F)(F)F	< 3.70	4.15	
COC(=O)c1c2c(cc3c1CC1(Cc4cc5c(c(C(C)=O)c4C1)CCCC5)C3)CCCC2 (stereo not drawn)	< 3.70	< 3.70	
Cn1c2ccccc2c2cc(-c3ccccc3)c3c(c21)C(=O)C=CC3=O	< 4.11	5.59	
c1ccc2c(c1)[nH]c1cnc3c4cccnc4[nH]c3c12	< 3.87	4.90	
Cc1cn(CCOCCOC(=O)NC(CCCN=C(N)N)C(=O)O)c(=O)[nH]c1=O (stereo not drawn)	< 3.70	< 3.70	
CN(C)c1ccc(C(=S)c2ccc(N(C)C)cc2)cc1	< 3.70	6.13	
CCOC(=O)/C(=C/N1C(=O)/C(=C/c2cccc([N+](=O)[O-])c2)SC1=S)C(=O)c1ccccc1	< 3.70	4.73	
CC(=O)OC1CC2C(C)(C)C(=O)C=C[C@]2(C)C2CCC3(C)C(c4ccoc4)[C@@H](O)[C@H]4O[C@]43[C@]12C (stereo partly drawn)	< 4.24	5.21	
Cc1nc2ccc(Br)cc2c(=O)n1-c1ccc(NC2OC(CO)C(O)C(O)C2O)cc1 (stereo not drawn)	< 3.70	< 3.70 and 3.71	
COC1=CC(=O)C(C#CCOCc2ccccc2)=CC1=O	< 3.70	4.83	
CCNC(=O)COc1cc2c(O)c3c(O)c(C)c4c(c13)C(=O)C(C)(O/C=C/C(OC)C(C)C(OC(C)=O)C(C)C(O)C(C)C(O)C(C)/C=C/C=C(\C)C(=O)N2)O4 (stereo not drawn)	< 3.70	4.08	
CC(C)/C(Cl)=N\OC(=O)Nc1ccc(C#N)cc1	< 3.70	5.37	
C[C@H]1C=C2[C@@H]3CC(C)(C(=O)O)CC[C@]3(C)CC[C@]2(C)[C@]2(C)CC[C@H]3C(C)(C)[C@@H](OC(=O)c4cccc5c(=O)c6ccccc6[nH]c45)CC[C@]3(C)[C@@H]12 (stereo partly drawn)	< 4.00	4.45	
CC(C)N(CCCNc1c2ccccc2nc2cccc([N+](=O)[O-])c12)C(C)C	< 3.70	7.20	
COc1cc(N(CCC#N)CCC#N)ccc1/C=C1\SC(=S)NC1=O	< 3.70	< 3.70	
NCCS(=O)(=O)O	< 3.70	< 3.70	
CS(=O)(=O)OCC1CN(S(C)(=O)=O)c2cc(O)ccc21 (stereo not drawn)	< 3.70	5.82	
COc1ccc(OC)c(-c2csc(=O)s2)c1	< 3.57	< 3.57	
COc1cc2c(cc1C)n(O)c(C)c(C(=O)C/C(=N/NC(=O)C[N+](C)(C)C)C(=O)Nc1cccc(Cl)c1C)[n+]2=O	< 4.92	< 4.92	

SMILES	pEC50	pIC50	outcome
COc1cc2c(cc1O)C(CSC)Cc1cc3c(cc1N(C)CC2)OCO3 (stereo not drawn)	< 3.83	4.92	
O=[N+]([O-])c1c(Cl)cccc1-c1c[nH]c(Cl)c1Cl	< 3.91	4.69	
CCOC(=O)C1C(=O)[C@H](C(=O)OC)C2CCCC3CCCC1N32 (stereo partly drawn)	< 3.70	< 3.70	
O=C(Nc1ccc(Br)cc1)C(=O)C(C(=O)c1ccc(Cl)c(Cl)c1)C1OC(=O)c2ccccc21 (stereo not drawn)	< 4.18	5.00	
O=[N+]([O-])c1nccn1CCCNCCCn1ccnc1[N+](=O)[O-]	< 3.70	< 3.70	
C/C(=N\NC(=O)c1ccncc1)c1ccccc1F	< 3.01	3.21	
Cc1cn(C2CC(O)C(CN(O)CCC3CC(n4cc(C)c(=O)[nH]c4=O)OC3CO)O2)c(=O)[nH]c1=O (stereo not drawn)	< 3.70	< 3.70	
O=C(Nc1ccc(F)cc1)Nc1ccc(Nc2ccccc2)cc1	< 3.70	< 3.70	
O=C(O)c1ccccc1NC(=O)C1CCCCC1			inactive
Cc1[nH]n(-c2ncc(C#N)c(=O)[nH]2)c(=O)c1CCO	< 3.70	< 3.70	
O=C1C2CCN(CC2)C1Cn1cnc2c(Cl)ncnc21 (stereo not drawn)			inactive
O=C(N1CCCC1)C1(c2cccc(Cl)c2)CCNCC1	< 3.70	3.89	
Cc1[nH]c(-c2ccccc2)c2nc(N(C)C)oc(=O)c12	< 3.70	< 3.70	
COc1ccc2c(c1)[n+]([O-])c(S(=O)(=O)c1ccc(C)cc1)c(N)[n+]2[O-]			inactive
CCCCCCCCCCCCC(F)C(=O)OCC1OC(n2cc(C)c(=O)[nH]c2=O)CC1N=[N+]=[N-] (stereo not drawn)	7.91	3.99	
CCC1Sc2cc(OC)cc3[nH]c(=S)n(c23)C1=O (stereo not drawn)	3.90	3.83	
O=c1c(SCc2ccc(Cl)c(Cl)c2)c(SCc2ccc(Cl)c(Cl)c2)cnn1-c1ccccc1	< 5.17	< 5.17	
CC(C)(C)C1CCC2c3c([nH]c4ccccc34)C3C(=O)N(c4ccc(Cl)cc4)C(=O)C3C2C1 (stereo not drawn)	< 3.70	< 4.00	
O=C(SC1=NCCS1)SC1=NCCS1			inactive
NS(=O)(=O)c1nnc(NS(=O)(=O)c2ccc(F)cc2)s1	< 3.70	< 3.70	
O=C(CC1Sc2ccccc2NC1=O)Nc1ccc(Cl)cc1 (stereo not drawn)	< 3.97	< 3.97	

SMILES	pEC50	pIC50	outcome
N#Cc1c(NC(=O)CN2CCOCC2)c(C(=O)Nc2ccc(Cl)cc2)n2c1CCC2	< 4.30	< 4.30	
CC(=O)OCC1OC(Nc2[nH]c(=O)n(C)c(=O)c2N=O)C(OC(C)=O)C(OC(C)=O)C1OC(C)=O (stereo not drawn)	< 3.70	< 3.70	
C1N2CN3CN1CN(C2)C3.[Cu+2]			inactive
CN(C)Cc1cc(C(=O)/C=C/c2ccc(Cl)c(Cl)c2)cc(CN(C)C)c1O	< 3.70	5.56	
C[C@]12CC[C@@H](O)C[C@H]1CC[C@@H]1[C@@H]2[C@@H](O)C[C@@]2(C)[C@H]1CC[C@]2(O)[C@@H](O)CO	< 3.70	< 3.70	
O=S(=O)(/C=C/C(=C/c1ccccc1)S(=O)(=O)c1ccccc1)c1ccccc1			inactive
Cc1nnc(SCC2=C(C(=O)O)N3C(=O)C(NC(=O)Cn4cc(Cl)c(=O)c(Cl)c4)C3SC2)s1 (stereo not drawn)	< 3.70	< 3.70	
Cc1cc2c(cc1C)[n+](=O)c(C(=O)C/C(=N/NC(=O)c1ccccc1O)C(=O)Nc1ccccc1C(C)C)c(C)n2[O-]	< 3.64	4.12	
COC(=O)C12CCC(C(F)(F)C1=O)C2(C)C (stereo not drawn)	< 3.70	< 3.70	
NC(N)=N/N=C(\c1ccc(F)cc1)C1CC1	< 3.70	4.47	
C/C(=N\N=C(N)N)c1ccccc1			inactive
O=C(CCSCCC(=O)NNc1ccccc1)NNc1ccccc1	< 4.70	< 4.70	
COC(=O)C1CCCCNC(=O)CCC(NC(=O)OCc2ccccc2)C(=O)N1 (stereo not drawn) (Cbz-Glu-Lys-OMe; lactam 1-2; configuration not given here)	< 3.70	< 3.70	
C=C1C(=O)OC2/C=C(/CO)C3(O)CC(O)C(C)(CC(OC(=O)/C(C)=C/C)C12)O3 (stereo not drawn)	< 3.20	5.93	
O=C(/C=C/c1ccccc1)/C=C/c1ccccc1O	< 3.84	4.21	
CCOC(=O)C1SC(=Nc2ccc(Cl)cc2Cl)N=C1C (stereo not drawn)			inactive
COc1ccc2c(c1)[n+](=O)c(C(=O)CC(=O)C(=O)Nc1cccc(Cl)c1C)c(C)n2[O-]	< 4.00	4.33	
COC(=O)[C@@]12OC[C@]34[C@H]([C@@H](O)[C@@H]1O)[C@@]1(C)CC(=O)C(O)=C(C)[C@@H]1C[C@H]3OC(=O)[C@H](OC(=O)C(N)Cc1ccccc1)[C@@H]24 (stereo partly drawn)			inactive
CCP(=O)(CC)C(Cl)(Cl)C(O)C(C)(C)C (stereo not drawn)	< 3.70	< 3.70	
NCC(CS)C(=O)NC(CS)C(=O)NC(CS)C(=O)NCCNc1ccc(NCCNC(=O)C(CS)NC(=O)C(CS)NC(=O)C(CN)CS)c2c1C(=O)c1c(O)ccc(O)c1C2=O (stereo not drawn)	< 5.70	7.90	
O=C1CN(c2ccccc2)CC(=O)N2C(c3ccccc3)CCCN12 (stereo not drawn)			inactive

SMILES	pEC50	pIC50	outcome
COc1cc(Br)cc2nc(-c3cccs3)oc12	< 3.70	3.85	
CCOC(=O)c1cc2c([nH]1)C(=O)CSC1=C2CCN1Cc1ccccc1	< 4.30	4.66	
Cn1nc(-c2ccc(Cl)cc2)[n+]([O-])c2c(=O)n(C)c(=O)nc1-2	< 3.70	5.48	
O=C1C=CC(=O)c2c(O)c3c(c(O)c21)C[C@H](O)[C@H](O)[C@@H]3O	< 3.57	6.41	
CCOC(=O)c1cn2c(nc1=O)N[C@H]1CCCC[C@@H]12	< 3.70	< 3.70	
CCOC(=O)/C=C/c1ccc(N(C)C)cc1	< 4.48	< 4.48	
C[N+]1(C)CC=C(N2CCOCC2)CC1	< 3.70	< 3.70	
COC(=O)CC(=O)C=P(c1ccccc1)(c1ccccc1)c1ccccc1	< 3.46	4.69	
O=C1/C(=C/c2ccc3c(c2)OCCO3)CCC/C1=C\c1ccc2c(c1)OCCO2	< 5.16	< 5.16	
Cc1cc(C)c(NS(=O)c2cccc(Cl)c2)c(C)c1 (stereo not drawn)	< 3.91	< 3.91	
CCCCC1Sc2cc(OC)cc([N+](=O)[O-])c2NC1=O (stereo not drawn)	< 3.70	4.21	
Oc1cc(Cc2ccccc2)c(Cc2ccccc2)cc1O	< 3.70	4.46	
C=CCC(SC)C1=C(C)C(=O)c2ccccc21 (stereo not drawn)	< 3.70	3.96	
O=CN1CCN(c2ccc3ccc(=O)[nH]c3n2)CC1	< 3.70	< 3.70	
CC(=O)OC1C[C@](C)(O)/C=C/CC(C)/C=C/[C@@]2(C)CCC(C(C)(C)O)C12 (stereo partly drawn)			inactive
CN1C(=O)/C(=C2\SC(=O)N(CN3CCCCC3)C2=O)c2ccccc21	< 3.70	4.56	
CC1=C2C(=O)C(C)(C)C=C2C(=O)[C@](C)(O)C12CC2			inactive
Cc1ccc(/C=C(\NC(=O)c2ccccc2)c2nc3ccccc3[nH]2)cc1	< 4.13	< 4.13	
Clc1cc(Cl)cc(N=C/C=C/Nc2cc(Cl)cc(Cl)c2)c1			inactive
Cc1cc(NC(=O)c2ccc(N)cc2)ccc1N=Nc1ccc2c(O)c(N=Nc3ccc(S(=O)(=O)O)cc3C)c(S(=O)(=O)O)cc2c1	4.46	< 3.70	
